The values that follow come from paper PMC11148772, “Inhibition of protein translational machinery in triple-negative breast cancer as a promising therapeutic strategy” (Cell Reports Medicine, 2024).

Experiment [1] concerns TNBC cells (MDA-MB-231, MDA-MB-468, SUM159). Briefly: Immunoblot assay of cell lysates. Format: cell-based, human. On the procedure:
MDA-MB-231, MDA-MB-468, and SUM159 cells were grown to 60–70% confluency and treated with DMSO and SU056 (1 μM) for 12 and 24 h. After the specific treatment time was over, total cell lysates were prepared in non-denaturing lysis buffer. For protein lysate from tumors: randomly selected frozen sample; three from vehicle and SU056 treated group were homogenized in non-denaturing lysis buffer at 4°C for 5 min. 10 μg of protein lysate per sample was resolved on 8–16% SDS-PAGE. Membranes were probed with specific primary antibodies followed by detection with HRP-conjugated appropriate secondary antibodies, visualized by enhanced chemiluminescence detection system, and imaged using an iBright imaging system (Thermo Fisher, USA).

In the next experiment the test system is CA1262-PDX-TNBC. Briefly: Patient-derived xenograft. Format: in vivo, mouse. The following applies: 50 mg/kg orally, NSG mice. An excerpt: Different patient-derived xenograft (PDX) of TNBC were used in this study. The Institutional Animal Care & Use Program of Oregon Health and Science University approved the protocol (#IP00003247). SUTI151-PDX-TNBC was kindly provided by Stefanie S. Jeffrey, MD, Stanford University, CA, USA.[48] CA1616-PDX-TNBC, CA1262-PDX-TNBC, and MA2821-PDX-TNBC were procured from the NCI Patient-Derived Models Repository (PDMR). Information of the PDX samples from NCI can be accessed at https://pdmr.cancer.gov/models/pdx.htm. 6–8 weeks old NSG (female) mice were anesthetized with isoflurane and tumor cells were xenografted into 5th mammary fat pad. Post-xenograft, once tumors reached a size of 50–100 mm^3, SU056 treatment (50 mg/kg body weight administered by oral gavage, 5 days per week) was started. At the end of treatment, mice were euthanized under deep anesthesia and tumors were surgically removed, measured, and weighed.

For a further experiment, the system named is MDA-MB-231 cells. Briefly: Polysome profiling. In kind it is cell-based, human. The following applies: 1 μM, 12 h. On the procedure:
1 x 10^6 MDA-MB-231 cells were plated in 100 mm culture plate and allowed to be attached for 24 h. Next day, cells were treated with vehicle or SU056 (1 μM) for 12 h in regular culture medium. Next, cells were incubated with cycloheximide (10 μg/mL) for 5 min at 37°C. Cells were then washed twice in 1x PBS with 10 μg/mL cycloheximide and collected by trypsinization and snap freeze in liquid nitrogen. Cell pellet was lysated in 250 μL polysome lysis buffer (5 mM Tris-HCl [pH 7.4], 1.5 mM KCl, 2.5 mM MgCl2, 0.1 mg/mL cycloheximide, 100 U/mL RNasin, 1× EDTA-free Complete protease inhibitor cocktail, 2 mM DTT, 0.5% Triton X-100, 0.5% deoxycholate). Lysate were quantified taking absorbance at 260 nm using Nanodrop and loaded on a linear 15%–50% sucrose gradient. The gradients were ultracentrifuged SW41Ti rotor (Beckman) for 1 h and 30 min at 180,000 g at 4°C in Beckman Optima LE-80K Ultracentrifuge. The gradients were fractionated in 1 mL volume fractions with continuous monitoring absorbance at 254 nm using an ISCO UA-6 UV detector at Immagina Biotechnology, Pergine, Italy.

In the next experiment the test system is 4T1 tumor. Briefly: Syngeneic mouse TNBC model. Format: in vivo. Particulars: 50 mg/kg oral gavage, Balb/cJ mice. On the procedure: (§1) Female NOD-Scid gamma (NSG, Homozygous for Prkdc, Hemizygous for Il2rg<tm1Wjl>) (Strain #005557) and Balb/cJ (Strain#000651) (7–8 weeks old) mice were purchased from the Jackson Laboratory and housed under standard laboratory conditions. The Institutional Animal Care & Use Program of Oregon Health and Science University approved the protocol (#IP00003247). MDA-MB-231 (3 x 10^6), MDA-MB-468 (5 x 10^6), 4T1 (1 x 10^5) and EMT6 (1 x 10^5) cells were suspended in 100 μL of 1x PBS and injected subcutaneously in each mouse. Tumor growth was monitored regularly and once the tumors reached approximately around 50–100 mm^3, treatment with SU056 (50 mg/kg body weight given by oral gavage, 5 days per week) was started. Tumor size and body weight were measured once a week. At the end of treatment, mice were euthanized via deep anesthesia followed by cervical dislocation. Tumors were excised and weighed. Tumor samples were processed for immunoblotting for different markers.

Another experiment relates to EMT6 tumor. Briefly: Syngeneic mouse TNBC model. In kind it is in vivo. Particulars: 50 mg/kg oral gavage, Balb/cJ mice. On the procedure:
as §1

Turning to `O=C1OCC2=C1C(c1cccc(F)c1)c1cc3c(cc1N2CCO)OCO3` (stereo not drawn) [SU056, 9-(3-fluorophenyl)-5-(2-hydroxyethyl)-6,9-dihydro-[1,3]dioxolo[4,5-g]furo[3,4-b]quinolin-8(5H)-one], in experiment [1] (1 μM, 12 and 24 h), the “RPLs (RPL36, RPL35, RPL32, RPL23A, RPL15, RPL11, RPL9)” value is listed as “decreased”; the YB-1 expression entry is on record as “decreased”; the c-Myc expression entry is “decreased”; the “expression of RPSs” value is “lower expression”. Further, in experiment [1] (1 μM, 12 and 24 h), the “levels of translation initiation factors” value was “decreased”; the “overall levels of mTOR” value is “decreased”; the “phosphorylation of mTOR (S2448)” value is reported as “inhibited”; the “phosphorylation of p70S6 kinase (T389 and S371) and S6R (S235/S236)” value is given as “decreased”. Moreover, in experiment [1] (12 and 24 h), the “phospho-histone H3 (Ser10), mitotic phase marker” value is “arrests TNBC cells in the mitotic phase”. In addition, in experiment [1] (MDA-MB-231 and MDA-MB-468, 1 μM), the “integrated stress response activation (PERK, eIF2α, ATF4)” value is “did not induce”. Besides, the “cell cycle regulatory proteins (p21 and p27)” value in experiment [1] (MDA-MB-231 and MDA-MB-468, 1 μM, 12 and 24 h) is given as “moderate increase”. Besides, in the experiment on CA1262-PDX-TNBC, the “tumor volume reduced compared to vehicle control” value amounted to 49.8% and the tumor weight decreased is 34.67%. Moreover, the “translational efficiency compared to control cells” value with MDA-MB-231 cells is listed as “reduced translational efficiency”. Also, in the experiment on 4T1 tumor, the “primary tumor load reduced compared with vehicle control” value turned out to be 45.53% and the “tumor weight reduced compared with vehicle control” value is recorded as 61%. In addition, in the experiment on EMT6 tumor, the “reduction in tumor weight” value turned out to be 42.53% and the “tumor growth decreased in comparison to control” value worked out at 37.47%.
